Experimental data taken from patent US20260274859A1, “FUSED POLYCYCLIC DERIVATIVE AND USE THEREOF” (ZHEJIANG HISUN PHARMACEUTICAL CO., LTD., priority 2023, published 2026).

Legend:
Assay type in all cases: cell-based
[1] = test system: HL60 cells; test: Inhibition of proliferation of HL60 tumor cells (CCK8 or CTG); conditions: Homo sapiens, HL-60
Procedure: The effect of the compound of the present disclosure on the proliferation of tumor cells was determined using the following method. The HL60 cells used in the method were purchased from Nanjing Kebai Biotechnology Co., Ltd., and the kit was the Cell Counting Kit-8/CCK-8 kit of MCE Company (article number: HY—K0301, specification: 3000T).
(1) HL60 cells in logarithmic growth phase were prepared into a cell suspension. The cell suspension was added into a 96-well plate at 5000 cells/well. The 96-well cell culture plate was placed in a CO2 incubator for 4 h of incubation of suspended cells or for 12 h of incubation of adherent cells.
(2) The compounds to be tested were diluted with IMDM complete culture medium to reach a concentration twice the testing concentration, and added to the corresponding wells.
(§1) (3) After the corresponding concentrations of the compounds to be tested were added, the plates were incubated in an incubator with 5% carbon dioxide at 37° C., and then the cell viability rate at each drug concentration was determined by CCK8 or CTG method. In addition, the IC50 value was calculated.

[2] = test system: A549 cells; test: Inhibition of proliferation of A549 cells (CCK8 or CTG); conditions: Homo sapiens, maximum concentration 10 μM, 5-fold dilution
Procedure: (1) A549 cells in the logarithmic growth phase were digested with 0.25% trypsin and counted. The cells were inoculated into 96-well plates at 2000 cells per well, and the 96-well plates were placed in an incubator containing 5% CO2 at 37° C. for 12 h of culture.
(§2) (2) Six concentration gradients for the compounds to be tested (with the maximum drug concentration of 10 μM and 5-fold dilution) were set. After the cells adhered to the wall, the compounds to be tested were serially diluted with DMSO, then diluted with 1640 complete medium to reach a concentration 1000 times the final concentration, and added to the corresponding wells.
as §1

[3] = test system: HK-2 cells; test: Inhibition of proliferation of HK-2 cells (normal cells; CCK8 or CTG); conditions: Homo sapiens, maximum concentration 10 μM, 5-fold dilution
Procedure: (1) HK-2 cells in the logarithmic growth phase were digested with 0.25% trypsin and counted. The cells were inoculated into 96-well plates at 2000 cells per well, and the 96-well plates were placed and cultured in an incubator containing 5% CO2 at 37° C. for 12 h.
as §2, with “for the compound to be” for “for the compounds to be”
as §1

SMILES	IC50 [1] [µM]	IC50 [2] [µM]	IC50 [3] [µM]
CC(C)(C)NC1CC(C(=O)Nc2sc3c(c2-c2nc4ccc(C5=CCNCC5)cc4s2)CCNC3)C1 (stereo not drawn) [Compound 120, 3-(tert-butylamino)-N-(3-(6-(1,2,3,6-tetrahydropyridin-4-yl)benzo[d]thiazol-2-yl)-4,5,6,7-tetrahydrothieno [2,3-c]pyridin-2-yl) cyclobutane-1-carboxamide]	< 0.15	0.00277	0.76
COCCNCCC(=O)Nc1sc2c(c1-c1nc3cc(-n4cnc(C)c4)ccc3s1)CCNC2 [Compound a, reference compound]	0.15 to 1.5	0.074	0.52
